Assay results: PMC10093686, “Structural insights into acetylated histone ligand recognition by the BDP1 bromodomain of Plasmodium falciparum” (International journal of biological macromolecules, 2022)
“Also recorded” adds a separate entry of the source.

Biological target: PfBDP1-BRD (P. falciparum Bromodomain Protein 1 bromodomain)
Test: ITC binding assay of PfBDP1-BRD with histone peptides
Design: species or system Plasmodium falciparum
Conditions: 5°C, 20 mM sodium phosphate pH 7.5, 150 mM NaCl, 1 mM TCEP, protein (303–488 or 333–456) 100–200 μM in cell, peptide 2.5–5.0 mM in syringe, 1:1 binding model, mean ± SD of three runs, non-binding ligands in duplicate
Experimental: Isothermal titration calorimetry (ITC) experiments were carried out using a MicroCal PEAQ-ITC and a MicroCal iTC200 (Malvern Panalytical). The purified PfBDP1-BRD proteins (containing residues 303–488 or 333–456) were dialyzed for 48 h at 4°C into ITC buffer containing 20 mM sodium phosphate buffer pH 7.5, 150 mM NaCl, and 1 mM TCEP. The dialyzed PfBDP1-BRD (303–488 or 333–456) proteins were added to the sample cell at concentrations of 100–200 μM, and between 2.5 and 5.0 mM of each histone peptide in the ITC dialysis buffer was placed in the injection syringe. A total of 20 injections were carried out, with the parameters set as follows. […] The remaining 19 injections were completed with an injection volume of 2 μL, a reaction time of 4 s, and a 150 s spacing time between each injection. All ITC runs were carried out at 5°C with a differential power (DP) value of 10, the feedback set to high, at a stirring speed of 750 RPM, and with an initial delay for the reaction set to 60 s.
The ITC data obtained were analyzed using the MicroCal PEAQ-ITC 200 analysis software provided with the instrument (Malvern Panalytical). The heat of dilutions for the buffer and peptide ligands were obtained from titrating buffer into buffer, buffer into PfBDP1-BRD protein (303–488 and 333–456), and histone peptide into buffer. The heats of dilution for the histone peptides were subtracted from the raw isotherms obtained from the histone peptide and PfBDP1-BRD (303–488 and 333–456) protein titrations. The first injection was discarded from the data analysis, and the data was integrated using a 1:1 binding model assuming a single set of identical binding sites. A Marquandt nonlinear least-squares analysis was used to calculate the binding affinities and N values from the normalized heat changes. Binding experiments were repeated in triplicate for each ligand and the mean KD was calculated from the average of the three runs, with the standard deviation coming from the mean.

Substance | PfBDP1-BRD KD
MEVPGVIGGKVGGKVGGKVLGLG [H2A.Z unmodified, unmodified P. falciparum histone variant H2A.Z peptide] | No Binding
SGKGPAQ(Kac)SQAAKKTAGKTLGPR [H2B.ZK8ac, histone H2B.Z peptide mono-acetylated at K8] | No Binding
SGKGPAQKSQAA(Kac)KTAGKTLGPR [H2B.ZK13ac, histone H2B.Z peptide mono-acetylated at K13] | No Binding
MEVPGVIGGKVGGKVGG(Kac)VLGLG [H2A.ZK19ac, histone H2A.Z peptide mono-acetylated at K19] | No Binding
MEVPGVIGG(Kac)VGGKVGGKVLGLG [H2A.ZK11ac, histone H2A.Z peptide mono-acetylated at K11] | No Binding
ARTKQTAR(Kac)STGGKAPRKQLATKA [H3K9ac, histone H3 peptide (1–24) mono-acetylated at lysine 9] | did not observe any interaction; also recorded: No Binding
SGKGPAQKSQAAKKTAG(Kac)TLGPR [H2B.ZK18ac, histone H2B.Z peptide mono-acetylated at K18] | No Binding
SGKGPAQKSQAAK(Kac)TAGKTLGPR [H2B.ZK14ac, histone H2B.Z peptide mono-acetylated at K14] | No Binding
SGRGKGG(Kac)GLGKGGAKRHRKVLRD [H4K8ac, histone H4 peptide (1–24) mono-acetylated at K8] | No Binding
SG(Kac)GPAQKSQAAKKTAGKTLGPR [H2B.ZK3ac, histone H2B.Z peptide mono-acetylated at K3] | No Binding
SGKGPAQKSQAAKKTAGKTLGPR [H2B.Z unmodified, unmodified P. falciparum histone variant H2B.Z peptide] | No Binding
MEVPGVIGGKVGG(Kac)VGGKVLGLG [H2A.ZK15ac, histone H2A.Z peptide mono-acetylated at K15] | No Binding

Test system: PfBDP1-BRD (303–488)
Test: NMR chemical shift perturbation (2D 15N-1H HSQC) titration with histone peptides
Type: binding, Plasmodium falciparum
Conditions: 0.3–0.5 mM 15N-labeled PfBDP1-BRD (303–488); 20 mM Tris-HCl pH 6.8, 150 mM NaCl, 10 mM DTT, 10% D2O; molar ratios 1:0, 1:0.5, 1:1, 1:2.5, 1:5; 25°C; result in words
Experimental: Chemical shift perturbation experiments were performed using 0.3–0.5 mM of uniformly ^15N-labeled PfBDP1-BRD (303–488) in NMR buffer containing 20 mM Tris-HCl pH 6.8, 150 mM NaCl, 10 mM DTT and 10% D2O. […] Two-dimensional ^15N−^1H HSQC (heteronuclear single quantum coherence) experiments for all samples were acquired on Bruker Avance III spectrometer equipped with a cryogenic 1.7 mm probe. The temperature of the samples was regulated at 25°C throughout data collection. All spectra were processed using TopSpin (Bruker) as described previously and analyzed using NMRFAM-SPARKY [48].

Substance | Chemical shift perturbations (CSPs) of PfBDP1-BRD backbone amide peaks upon addition of peptide
MEVPGVIGG(Kac)VGGKVGGKVLGLG [H2A.ZK11ac, histone H2A.Z peptide mono-acetylated at K11] | absence of CSPs
ARTKQTAR(Kac)STGGKAPRKQLATKA [H3K9ac, histone H3 peptide (1–24) mono-acetylated at lysine 9] | did not observe any CSPs
